Experimental data: patent US10344019B2 (priority 2010, dated 2019)
Read-outs that look alike come from different tables or passages of the source.

Experiments:
Experiment in all cases: microbe, parasite or virus in culture
Format in all cases: cell-based
[1] = test system: HCV 1b RLuc cells (dicistronic genotype 1b Con1 replicon, RLuc reporter); details: Hepatitis C virus, read-out: 1b (nM)
Protocol: (§1) Evaluation of cell-based anti-HCV activity: Antiviral potency (EC50) was determined using a Renilla luciferase (RLuc)-based HCV replicon reporter assay. To perform the assay for genotype 1 and 2a JFH-1, HCV 1b RLuc cells (harboring a dicistronic genotype 1b Con1 replicon that encodes a RLuc reporter), or HCV 1a RLuc cells (harboring a dicistronic genotype 1a H77 replicon that encodes a RLuc reporter), or HCV 2a JFH-1 Rluc cells (harboring a dicistronic genotype 2a JFH-1 replicon that encodes a RLuc reporter) were dispensed into 384-well plates. To perform the assay for genotype 2a (with M31 present) or 2b, HCV 2a Rluc or 2b Rluc cells (both with M31 present) harboring a dicistronic NS5A chimeric genotype 2a JFH-1 replicon that encodes a RLuc reporter and either genotype 2a J6 strain NS5A gene or genotype 2b MD2b-1 NS5A gene (based on Los Alamos HCV database isolates, both with M31 present) respectively, were dispensed into 384-well plates. To perform the assay for genotype 3 and 4, HCV 3a RLuc or 4a Rluc cells harboring a dicistronic NS5A chimeric genotype 1b Con1 replicon that encodes a RLuc reporter and either a consensus genotype 3a NS5A gene or genotype 4a NS5A gene (based on Los Alamos HCV database isolates) respectively, were dispensed into 384-well plates. Compounds were re-suspended in DMSO at a concentration of 10 mM and serially diluted in DMSO either manually or using an automated pipeting instrument. Serially diluted compounds were mixed with cell culture media and added to the seeded cells. […] 72 hours later, cells were lysed and Renilla luciferase activity quantified as recommended by the manufacturer (Promega-Madison, Wis.). Non-linear regression was performed to calculate EC50 values.

[2] = test system: HCV 2a JFH-1 Rluc cells (dicistronic genotype 2a JFH-1 replicon, RLuc reporter); details: Hepatitis C virus, genotype 2a JFH-1 replicon, read-out: 2a JFH
Protocol: as §1

[3] = test system: HCV 1a RLuc cells (dicistronic genotype 1a H77 replicon, RLuc reporter); details: Hepatitis C virus, read-out: 1a
Protocol: as §1

[4] = test system: HCV 3a RLuc cells (NS5A chimeric genotype 1b Con1 replicon with consensus genotype 3a NS5A gene); details: Hepatitis C virus
Protocol: as §1

[5] = test system: HCV 4a Rluc cells (NS5A chimeric genotype 1b Con1 replicon with genotype 4a NS5A gene); details: Hepatitis C virus, read-out: 4a
Protocol: as §1

[6] = read-out: 3a, genotype 3a replicon
[7] = genotype 1a H77 replicon, RLuc reporter
[8] = read-out: 3a, genotype 3a NS5A chimeric 1b Con1 replicon
[9] = 72 h, Table 2, genotype 1a H77 replicon, 72 hours
[10] = read-out: 3a, Table 2, genotype 3a NS5A chimeric replicon

COC(=O)N[C@H](C(=O)N1CCC[C@H]1c1ncc(-c2ccc3c(ccc4cc(-c5cnc([C@@H]6[C@H]7CC[C@H](C7)N6C(=O)[C@@H](NC(=O)OC)C(C)C)[nH]5)ccc43)c2)[nH]1)C(C)C [Example 303]
EC50 [1]: 0.008 nM
EC50 [2]: 1 to 999 pM
EC50 ([3]; genotype 1a replicon): 1 to 999 pM
EC50 [4, 6]: 1 to 990 pM
EC50 [5]: 1 to 990 pM

COC(=O)N[C@H](C(=O)N1CC2(CC2)C[C@H]1c1nc(-c2ccc3c(c2)C(F)(F)c2cc(-c4ccc5nc([C@@H]6[C@H]7CC[C@H](C7)N6C(=O)[C@@H](NC(=O)OC)C(C)C)[nH]c5c4)ccc2-3)c(Cl)[nH]1)C(C)C [Example 382]
EC50 [1]: 0.006 nM
EC50 [2]: > 44000 pM
EC50 ([3]; genotype 1a replicon): 1 to 999 pM
EC50 [4, 6]: > 5000 pM
EC50 [5]: 1 to 990 pM

COC(=O)N[C@H](C(=O)N1CCC[C@H]1c1ncc(-c2ccc(-c3ccc4c(ccc5nc([C@@H]6[C@H]7CC[C@H](C7)N6C(=O)[C@@H](NC(=O)OC)C(C)C)[nH]c54)c3)cc2Cl)[nH]1)C(C)C [Example 371]
EC50 [1]: 0.007 nM
EC50 [2]: 1 to 999 pM
EC50 ([3]; genotype 1a replicon): 1 to 999 pM
EC50 [4, 6]: > 5000 pM
EC50 [5]: 1 to 990 pM

CC#Cc1cc(-c2cnc([C@@H]3CCCN3C(=O)[C@@H](NC(=O)OC)C(C)C)[nH]2)ccc1-c1ccc(-c2cnc([C@@H]3CCCN3C(=O)[C@@H](NC(=O)OC)C(C)C)[nH]2)cc1 [Example 342]
EC50 [1]: 0.01 nM
EC50 [2]: 1 to 999 pM
EC50 ([3]; genotype 1a replicon): 1 to 999 pM
EC50 [4, 6]: 1 to 990 pM
EC50 [5]: 1 to 990 pM

COC(=O)N[C@H](C(=O)N1C[C@@H](C#N)C[C@H]1c1ncc(-c2ccc3cc(-c4ccc(-c5cnc([C@@H]6CCCN6C(=O)[C@H](NC(=O)OC)c6ccccc6)[nH]5)cc4)ccc3c2)[nH]1)C(C)C [Example 116]
EC50 [1]: 0.008 nM
EC50 ([2]; RLuc reporter): 1 to 999 pM
EC50 [3, 7]: 1 to 999 pM
EC50 [4, 8]: 1 to 990 pM
EC50 [5]: 1 to 990 pM

COC(=O)N[C@H](C(=O)N1CCC[C@H]1c1ncc(-c2ccc(-c3ccc4c(c3)c3ccccc3c3nc([C@@H]5CCCN5C(=O)[C@@H](NC(=O)OC)C(C)C)[nH]c43)cc2)[nH]1)C(C)C [Example 299]
EC50 [1]: 0.017 nM
EC50 [2]: 1000 to 44000 pM
EC50 ([3]; genotype 1a replicon): 1000 to 44000 pM
EC50 [4, 6]: > 5000 pM
EC50 [5]: 1 to 990 pM

COC(=O)N[C@H](C(=O)N1[C@@H]2CC[C@@H](C2)[C@H]1c1ncc(-c2ccc(-c3ccc4cc(-c5cnc([C@@H]6CCCN6C(=O)[C@H](NC(=O)OC)c6ccccc6)[nH]5)ccc4c3)cc2)[nH]1)C1CCOCC1 [Example 71]
EC50 ([1]; 72 h): 0.013 nM
EC50 ([2]; 72 h, Table 2, 72 hours): 1 to 999 pM
EC50 [3, 9]: 1 to 999 pM
EC50 [4, 10]: 1 to 990 pM
EC50 [5]: 1 to 990 pM

COC(=O)N[C@H](C(=O)N1[C@@H]2CC[C@@H](C2)[C@H]1c1ncc(-c2ccc(-c3ccc4cc(-c5cnc([C@@H]6CCCN6C(=O)[C@H](NC(=O)OC)c6ccccc6)[nH]5)ccc4c3)cc2)[nH]1)[C@@H](C)OC [Example 72]
EC50 ([1]; 72 h): 0.006 nM
EC50 ([2]; 72 h, Table 2, 72 hours): 1 to 999 pM
EC50 [3, 9]: 1 to 999 pM
EC50 [4, 10]: 1 to 990 pM
EC50 [5]: 1 to 990 pM

COC(=O)N[C@H](C(=O)N1CCC[C@H]1c1ncc(-c2ccc3cc(-c4ccc(-c5cnc([C@@H]6CC7(CC7)CN6C(=O)[C@H](NC(=O)OC)c6ccccc6)[nH]5)cc4)ccc3c2)[nH]1)C1CCOCC1 [Example 236]
EC50 [1]: 0.011 nM
EC50 ([2]; RLuc reporter): 1 to 999 pM
EC50 [3, 7]: 1 to 999 pM
EC50 [4, 8]: 1 to 990 pM
EC50 [5]: 1 to 990 pM

COC(=O)N[C@H](C(=O)N1CCC[C@H]1c1nc2c([nH]1)-c1ccc(-c3ccc4cc(-c5cnc([C@@H]6CCCN6C(=O)[C@H](NC(=O)OC)c6ccccc6)[nH]5)ccc4c3)cc1CC2)C1CCN(C(=O)OC(C)(C)C)CC1 [Example 270]
EC50 [1]: 0.032 nM
EC50 ([2]; RLuc reporter): 1 to 999 pM
EC50 [3, 7]: 1 to 999 pM
EC50 [4, 8]: 1 to 990 pM
EC50 [5]: 1 to 990 pM

COC(=O)N[C@H](C(=O)N1CCC[C@H]1c1ncc(-c2ccc3cc(-c4ccc(-c5cnc([C@@H]6CCCN6C(=O)[C@@H](NC(=O)OC)[C@@H](C)OC(C)(C)C)[nH]5)cc4)ccc3c2)[nH]1)C(C)C [Example 265]
EC50 [1]: 0.042 nM
EC50 ([2]; RLuc reporter): 1000 to 44000 pM
EC50 [3, 7]: 1000 to 44000 pM
EC50 [4, 8]: 1000 to 4990 pM
EC50 [5]: 1 to 990 pM

COC(=O)N[C@H](C(=O)N1CCC[C@H]1c1ncc(-c2ccc3c(c2)CCc2cc(-c4cnc([C@@H]5[C@H]6CC[C@H](C6)N5C(=O)[C@@H](c5ccccc5)N5CCOCC5)[nH]4)ccc2-3)[nH]1)C(C)C [Example 295]
EC50 [1]: 0.05 nM
EC50 [2]: 1 to 999 pM
EC50 ([3]; genotype 1a replicon): 1000 to 44000 pM
EC50 [4, 6]: 1 to 990 pM
EC50 [5]: 1 to 990 pM

COC(=O)N[C@H](C(=O)N1CCC[C@H]1c1nc(Cl)c(-c2ccc(-c3ccc4cc(-c5[nH]c([C@@H]6CCCN6C(=O)[C@@H](NC(=O)OC)C(C)C)nc5Cl)ccc4c3)cc2)[nH]1)C(C)C [Example 380]
EC50 [1]: 0.006 nM
EC50 [2]: 1 to 999 pM
EC50 ([3]; genotype 1a replicon): 1 to 999 pM
EC50 [4, 6]: > 5000 pM
EC50 [5]: 1 to 990 pM

CCC(CC)[C@H](NC(=O)OC)C(=O)N1CCC[C@H]1c1ncc(-c2ccc3cc(-c4ccc(-c5cnc([C@@H]6CCCN6C(=O)[C@H](NC(=O)OC)c6ccccc6)[nH]5)cc4)ccc3c2)[nH]1 [Example 286]
EC50 [1]: 0.003 nM
EC50 ([2]; RLuc reporter): 1 to 999 pM
EC50 [3, 7]: 1 to 999 pM
EC50 [4, 8]: 1 to 990 pM
EC50 [5]: 1 to 990 pM

COC(=O)N[C@H](C(=O)N1CCC[C@H]1c1ncc(-c2ccc3c(c2)C(F)(F)c2cc(-c4ccc5nc([C@@H]6[C@H]7CC[C@H](C7)N6C(=O)[C@H](NC(=O)OC)c6ccccc6)[nH]c5c4)ccc2-3)[nH]1)C1CCOCC1 [Example 56]
EC50 ([1]; 72 h): 0.01 nM
EC50 ([2]; 72 h, Table 2, 72 hours): 1 to 999 pM
EC50 [3, 9]: 1 to 999 pM
EC50 [4, 10]: 1 to 990 pM
EC50 [5]: 1 to 990 pM

COC(=O)N[C@H](C(=O)N1[C@@H]2CC[C@@H](C2)[C@H]1c1ncc(-c2ccc(-c3ccc4c(ccc5nc([C@@H]6CCCN6C(=O)[C@H](NC(=O)OC)c6ccccc6)[nH]c54)c3)cc2F)[nH]1)C(C)C [Example 312]
EC50 [1]: 0.011 nM
EC50 [2]: 1 to 999 pM
EC50 ([3]; genotype 1a replicon): 1000 to 44000 pM
EC50 [4, 6]: 1 to 990 pM
EC50 [5]: 1 to 990 pM

COC(=O)N[C@H](C(=O)N1CCC[C@H]1c1nc2ccc3cc(-c4ccc(-c5[nH]c([C@@H]6C[C@H]7C[C@H]7N6C(=O)[C@@H](NC(=O)OC)C(C)C)nc5Cl)cc4)ccc3c2[nH]1)C(C)C [Example 383]
EC50 [1]: 0.008 nM
EC50 [2]: 1 to 999 pM
EC50 ([3]; genotype 1a replicon): 1 to 999 pM
EC50 [4, 6]: 1 to 990 pM
EC50 [5]: 1 to 990 pM

COC(=O)N[C@H](C(=O)N1CCC[C@H]1c1ncc(-c2cc3c4c(c2)CCc2cc(-c5cnc([C@@H]6CCCN6C(=O)[C@@H](NC(=O)OC)C(C)C)[nH]5)cc(c2-4)CC3)[nH]1)C(C)C [Example 20]
EC50 ([1]; 72 h): 0.021 nM
EC50 ([2]; 72 h, Table 1, 72 hours): 1 to 999 pM
EC50 ([3]; 72 h, Table 1, genotype 1a H77 replicon, 72 hours): 1 to 999 pM
EC50 ([4]; read-out: 3a, Table 1, genotype 3a NS5A chimeric replicon): 1 to 990 pM
EC50 [5]: 1 to 990 pM

COC(=O)N[C@H](C(=O)N1CCC[C@H]1c1nc2c([nH]1)-c1ccc(-c3ccc4cc(-c5cnc([C@@H]6CCCN6C(=O)[C@H](NC(=O)C(C)(C)O)c6ccccc6)[nH]5)ccc4c3)cc1CC2)C(C)C [Example 244]
EC50 [1]: 0.014 nM
EC50 ([2]; RLuc reporter): 1 to 999 pM
EC50 [3, 7]: 1 to 999 pM
EC50 [4, 8]: 1 to 990 pM
EC50 [5]: 1 to 990 pM

COC(=O)NC(C(=O)N1CCC[C@H]1c1nc2ccc3cc(-c4ccc5cc(-c6cnc([C@@H]7[C@H]8CC[C@H](C8)N7C(=O)[C@H](NC(=O)OC)c7ccccc7)[nH]6)ccc5c4)ccc3c2[nH]1)[C@@H](C)OC (stereo partly drawn) [Example 70]
EC50 ([1]; 72 h): 0.008 nM
EC50 ([2]; 72 h, Table 2, 72 hours): 1000 to 44000 pM
EC50 [3, 9]: 1 to 999 pM
EC50 [4, 10]: 1000 to 4990 pM
EC50 [5]: 1 to 990 pM

COC(=O)N[C@H](C(=O)N1CCC[C@H]1c1ncc(-c2ccc3c(c2)cc(C#N)c2cc(-c4cnc([C@@H]5CCCN5C(=O)[C@@H](NC(=O)OC)C(C)C)[nH]4)ccc23)[nH]1)C(C)C [Example 274]
EC50 [1]: 0.011 nM
EC50 ([2]; RLuc reporter): 1000 to 44000 pM
EC50 [3, 7]: 1000 to 44000 pM
EC50 [4, 8]: 1000 to 4990 pM
EC50 [5]: 1 to 990 pM
